Source: patent publication US20210127675A1, “METHOD FOR C[…]-TYPE MULTIDRUG RESISTANT PLANT DISEASES” (priority 2017, published 2021)

Legend:
[1] = system: grapes gray mold fungus (Botrytis cinerea); experiment: Control test against efflux type multidrug resistant grapes gray mold fungus (growth in PDB, absorbance at 600 nm); type: cell-based; conditions: for EC50 value ratio 1: EC50 against resistant strain 1 / EC50 against wild-type strain; for EC50 value ratio 2: EC50 against resistant strain 2 / EC50 against wild-type strain; for EC50 value ratio 3: EC50 against resistant strain 3 / EC50 against wild-type strain; for EC50 value, Efflux type multidrug resistant fungus strain 1: strain 1: ABC transporter-overexpressing (Bc-56, NITE BP-02676); for EC50 value, Efflux type multidrug resistant fungus strain 1 / EC50 value, Efflux type multidrug resistant fungus strain 2 / EC50 value, Efflux type multidrug resistant fungus strain 3 / EC50 value, Wild-type fungus strain: 18° C., 2 days; for EC50 value, Efflux type multidrug resistant fungus strain 2: strain 2: MFS transporter-overexpressing (Bc-107, NITE BP-02678); for EC50 value, Efflux type multidrug resistant fungus strain 3: strain 3: ABC transporter and MFS transporter-overexpressing (Bc-103, NITE BP-02677)
Method: (§1) Efficacy=100×(X−Y)/X “Equation 1” • X: Degree of growth of fungus in non-treated group • Y: Degree of growth of fungus in treated group
(§2) EC50 value ratio=EC50 value against efflux type multidrug resistant fungus strain/EC50 value against wild-type fungus strain “Equation 2”
Control Test Against Efflux Type Multidrug Resistant Grapes Gray Mold Fungus (Botrytis cinerea)
Each of the present compound (1), fludioxonil and tolnaftrate was diluted with dimethyl sulfoxide to a prescribed concentration thereof, respectively. Each of the chemical solutions comprising the respective testing compound was dispensed into a titer plate (with 96 wells) in the amount of 1 μL. Thereto was then dispensed 150 μL of a potato dextrose broth (PDB culture media) to which each conidia of grapes gray mold fungi, that is, efflux type multidrug resistant fungus strains (specifically, efflux type multidrug resistant fungus strain 1: ABC transporter-overexpressing fungus strain (fungus strain name: NITE accession number (NITE BP-02676), in-house management codes (Bc-56)); efflux type multidrug resistant fungus strain 2: MFS transporter-overexpressing fungus strain (fungus strain name: NITE accession number (NITE BP-02678), in-house management codes (Bc-107)); and efflux type multidrug resistant fungus strain 3: ABC transporter and MFS transporter-overexpressing fungus strain (fungus strain name: NITE accession number (NITE BP-02677), in-house management codes (Bc-103))) or wild-type fungus strain, respectively, was inoculated in advance. The plate was cultured at 18° C. for 2 days, thereby allowing each grapes gray mold fungus to undergo proliferation, and the absorbance at 600 nm of each well of the titer plate was then measured to determine a degree of growth of each of the grapes gray mold fungi (treated group). On the other hand, each of the groups where the wild-type fungus strain or the efflux type multidrug resistant grapes gray mold fungus strains was grown except that the chemical solution was replaced with dimethyl sulfoxide were made non-treated group, respectively, and then the degree of the growth thereof was examined (non-treated group).
The efficacy was calculated from the degree of the growth by the below-mentioned “Equation 1”, and then each EC50 value of the testing compound, respectively against the efflux type multidrug resistant fungus strains and the wild-type fungus strain was calculated. Also, an EC50 value ratio was calculated by the above-mentioned “Equation 2”.

[2] = system: wheat Septoria leaf blotch fungus (Zymoseptoria tritici); experiment: Control test against efflux type multidrug resistant wheat Septoria leaf blotch fungus (growth in PDB, absorbance at 600 nm); type: cell-based; conditions: for EC50 value ratio: EC50 against efflux type multidrug resistant strain / EC50 against wild-type strain; for EC50 value, Efflux type multidrug resistant fungus strain: efflux type multidrug resistant fungus strain St 106-6; for EC50 value, Efflux type multidrug resistant fungus strain / EC50 value, Wild-type fungus strain: 18° C., 4 days
Method: Control test against Efflux type multidrug resistant wheat Septoria leaf blotch fungus (Zymoseptoria tritici)
Each of the present compound (1) and tolnaftrate was diluted with dimethyl sulfoxide to a prescribed concentration thereof, respectively. Each of the chemical solutions comprising the respective testing compound was dispensed into a titer plate (with 96 wells) in the amount of 1 μL. Thereto was then dispensed 150 μL of a potato dextrose broth (PDB culture media) to which each conidia of wheat Septoria leaf blotch fungus (efflux type multidrug resistant fungus strains) (fungus strain name: St 106-6 as in-house management codes) or wild-type fungus strain, respectively, was inoculated in advance. The plate was cultured at 18° C. for 4 days, thereby allowing each wheat Septoria leaf blotch fungus to undergo proliferation, and the absorbance at 600 nm of each well of the titer plate was then measured to determine a degree of growth of the wheat Septoria leaf blotch fungus (treated group). On the other hand, each of the groups where the wild-type fungus strain or the efflux type multidrug resistant wheat Septoria leaf blotch fungus strain was grown except that the chemical solution was replaced with dimethyl sulfoxide were made non-treated group, respectively, and then the degree of growth thereof was examined (non-treated group).
The efficacy was calculated from the degree of the growth by the below-mentioned “Equation 1”, and then each […] value of the testing compound, respectively against the efflux type multidrug resistant fungus strains and the wild-type fungus strain was calculated. Next, as shown in the below-mentioned “Equation 2”, an EC50 value ratio was calculated by dividing an EC50 value against the efflux type multidrug resistant fungus strains by an EC50 value against the wild-type fungus strain.
as §1, §2

| SMILES | EC50 value ratio 1 [1] | EC50 value ratio 2 [1] | EC50 value ratio 3 [1] | EC50 value, Efflux type multidrug resistant fungus strain 1 [1] [ppm] | EC50 value, Efflux type multidrug resistant fungus strain 2 [1] [ppm] | EC50 value, Efflux type multidrug resistant fungus strain 3 [1] [ppm] | EC50 value, Wild-type fungus strain [1] [ppm] | EC50 value ratio [2] | EC50 value, Efflux type multidrug resistant fungus strain [2] [ppm] | EC50 value, Wild-type fungus strain [2] [ppm] | EC50 value ratio ([2]; listed as tolnaftate) | EC50 value ratio 1 ([1]; listed as tolnaftate) | EC50 value ratio 2 ([1]; listed as tolnaftate) | EC50 value ratio 3 ([1]; listed as tolnaftate) |
| --- | --- | --- | --- | --- | --- | --- | --- | --- | --- | --- | --- | --- | --- | --- |
| N#Cc1c[nH]cc1-c1cccc2c1OC(F)(F)O2 [Fludioxonil] | 23 | 14 | 43 | 0.19 | 0.12 | 0.36 | 0.0085 |  |  |  |  |  |  |  |
| Cc1nn(C)c(Nc2c(F)cccc2Cl)c1-c1ccc(F)cc1Br [Present compound (1)] | 1.7 | 1.6 | 1.1 | 0.11 | 0.11 | 0.072 | 0.067 | 1.1 | 0.052 | 0.048 |  |  |  |  |
| Cc1cccc(N(C)C(=S)Oc2ccc3ccccc3c2)c1 [Tolnaftate] | >4.5 | >4.5 | >4.5 | >10 | >10 | >10 | 2.2 | >19 | >10 | 0.51 | 19 | more than 4.5 | more than 4.5 | more than 4.5 |
